ChEMBL document CHEMBL1201862, “PubChem BioAssay data set” (2004)
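Following 48 hours of exposure in 96-well plates, responses at five concentrations were used to interpolate endpoints linearly. Here, GI50 denotes the concentration required for 50% inhibition of growth.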 Activity calls are given as the source filed them. Cut-off read from the data, not from the text of the source: active = GI50 up to about 1.1 µM and inactive = higher.

What was measured:
Assay in all cases: growth of human tumour cells (NCI), 48 h
CAKI-1 = system: CAKI-1
COLO 205 = system: COLO 205
DU-145 = system: DU-145
HOP-62 = system: HOP-62
HOP-92 = system: HOP-92
HT-29 = system: HT-29
Hs-578T = system: Hs-578T
IGROV-1 = system: IGROV-1
KM12 = system: KM12
LOX IMVI = system: LOX IMVI
M14 = system: M14
MDA-MB-231 = system: MDA-MB-231
MDA-MB-435 = system: MDA-MB-435
NCI-H522 = system: NCI-H522
NCI/ADR-RES = system: NCI/ADR-RES
SF-295 = system: SF-295
SK-MEL-2 = system: SK-MEL-2
SNB-75 = system: SNB-75
T47D = system: T47D
HCC 2998 = system: HCC 2998

SMILES	GI50 (CAKI-1)	GI50 (COLO 205)	GI50 (DU-145)	GI50 (HOP-62)	GI50 (HOP-92)	GI50 (HT-29)	GI50 (Hs-578T)	GI50 (IGROV-1)	GI50 (KM12)	GI50 (LOX IMVI)	GI50 (M14)	GI50 (MDA-MB-231)	GI50 (MDA-MB-435)	GI50 (NCI-H522)	GI50 (NCI/ADR-RES)	GI50 (SF-295)	GI50 (SK-MEL-2)	GI50 (SNB-75)	GI50 (T47D)	GI50 (HCC 2998)
C[N+](C)(C)CC(=O)N/N=C\c1c(O)ccc2ccccc12	40.9 µM (inactive)	> 100 µM (inactive)	23.8 µM (inactive)	26.7 µM (inactive)	13.2 µM (inactive)	> 100 µM (inactive)	14.4 µM (inactive)	20 µM (inactive)	32.4 µM (inactive)	32.7 µM (inactive)	31.5 µM (inactive)	92.9 µM (inactive)	39.3 µM (inactive)	16.2 µM (inactive)	33.7 µM (inactive)	46.1 µM (inactive)	28.3 µM (inactive)	16.8 µM (inactive)	32.9 µM (inactive)	
CSC(=S)NN=C1CCCC1.CSC(=S)NN=C1CCCC1.[Zn+2]	46.7 µM (inactive)	34.6 µM (inactive)	58.5 µM (inactive)	28.3 µM (inactive)	0.0415 µM (active)	19.5 µM (inactive)	29.2 µM (inactive)	10.1 µM (inactive)	41 µM (inactive)	10.7 µM (inactive)	40.1 µM (inactive)	17.8 µM (inactive)	28.4 µM (inactive)	15.7 µM (inactive)	> 100 µM (inactive)	16.8 µM (inactive)	22.7 µM (inactive)	> 100 µM (inactive)	33.5 µM (inactive)	
O=C(/C=C/c1c(O)nc2ccccc2c1O)CC(=O)C(=O)Nc1cccc(O)c1	> 100 µM (inactive)	> 100 µM (inactive)	> 100 µM (inactive)		> 100 µM (inactive)	> 100 µM (inactive)	> 100 µM (inactive)	> 100 µM (inactive)	> 100 µM (inactive)	> 100 µM (inactive)	> 100 µM (inactive)	> 100 µM (inactive)	> 100 µM (inactive)	> 100 µM (inactive)	> 100 µM (inactive)	> 100 µM (inactive)	> 100 µM (inactive)	> 100 µM (inactive)	> 100 µM (inactive)	> 100 µM (inactive)
COc1ccc(OC)c2c1C=C[C@H](C1(C)SCCS1)C2C(C)=O (some centres undefined)	32.6 µM (inactive)	> 10 µM (inactive)	28.9 µM (inactive)	39.8 µM (inactive)	32.8 µM (inactive)	18.7 µM (inactive)	17.2 µM (inactive)	42.4 µM (inactive)	32.4 µM (inactive)	9.84 µM (inactive)	31.2 µM (inactive)	32.2 µM (inactive)	23.9 µM (inactive)	13.9 µM (inactive)	32.2 µM (inactive)	23.9 µM (inactive)			24.2 µM (inactive)	50.1 µM (inactive)
CSc1nc(-c2ccccc2)nc(C(C#N)C#N)n1	> 100 µM (inactive)	> 100 µM (inactive)	> 100 µM (inactive)	> 100 µM (inactive)	> 100 µM (inactive)	> 100 µM (inactive)	> 100 µM (inactive)	> 100 µM (inactive)	> 100 µM (inactive)	> 100 µM (inactive)	> 100 µM (inactive)	> 100 µM (inactive)	> 100 µM (inactive)	> 100 µM (inactive)	> 100 µM (inactive)	> 100 µM (inactive)	> 100 µM (inactive)	> 100 µM (inactive)	> 100 µM (inactive)	> 100 µM (inactive)
COc1ccc(C2=C3SC=c4ccccc4=C3ON=C2c2ccccc2)cc1	> 100 µM (inactive)	> 100 µM (inactive)	> 100 µM (inactive)	> 100 µM (inactive)	68.1 µM (inactive)	> 100 µM (inactive)	> 100 µM (inactive)	> 100 µM (inactive)	> 100 µM (inactive)	> 100 µM (inactive)	> 100 µM (inactive)	> 100 µM (inactive)	> 100 µM (inactive)	53.8 µM (inactive)	> 100 µM (inactive)	> 100 µM (inactive)	> 100 µM (inactive)		25.4 µM (inactive)	> 100 µM (inactive)
Cl.O=C(O)c1cccnc1	> 100 µM (inactive)	> 100 µM (inactive)	> 100 µM (inactive)	> 100 µM (inactive)	> 100 µM (inactive)	> 100 µM (inactive)	> 100 µM (inactive)	> 100 µM (inactive)	> 100 µM (inactive)	> 100 µM (inactive)	> 100 µM (inactive)	> 100 µM (inactive)	> 100 µM (inactive)	> 100 µM (inactive)	> 100 µM (inactive)	> 100 µM (inactive)		> 100 µM (inactive)	> 100 µM (inactive)	> 100 µM (inactive)
O=C(C(Cl)=C(N1CCCCC1)N1CCCCC1)C(Cl)Cl	21.4 µM (inactive)	> 100 µM (inactive)	> 100 µM (inactive)	> 100 µM (inactive)	> 100 µM (inactive)	> 100 µM (inactive)	> 100 µM (inactive)	> 100 µM (inactive)	> 100 µM (inactive)	> 100 µM (inactive)	> 100 µM (inactive)	> 100 µM (inactive)	> 100 µM (inactive)	> 100 µM (inactive)	> 100 µM (inactive)	> 100 µM (inactive)			> 100 µM (inactive)	> 100 µM (inactive)
COc1cc2c3c(cc(Cl)nc3c1OC)C(O)(CC(C)=O)C(=O)N2 (centres undefined)	22.1 µM (inactive)	38.1 µM (inactive)	> 39.1 µM (inactive)	> 44.6 µM (inactive)	19.1 µM (inactive)	> 45.7 µM (inactive)	40.3 µM (inactive)	19.1 µM (inactive)	> 45.5 µM (inactive)	16.3 µM (inactive)	18.9 µM (inactive)	17 µM (inactive)	16.4 µM (inactive)	8.97 µM (inactive)	> 44.9 µM (inactive)	> 100 µM (inactive)	20.3 µM (inactive)	38.6 µM (inactive)	3.2 µM (inactive)	> 44 µM (inactive)
NC(Cc1nnn[nH]1)C(=O)O (centres undefined)	> 100 µM (inactive)	> 100 µM (inactive)	> 100 µM (inactive)	> 100 µM (inactive)	> 100 µM (inactive)	> 100 µM (inactive)	> 100 µM (inactive)	> 100 µM (inactive)	> 100 µM (inactive)	> 100 µM (inactive)	> 100 µM (inactive)	> 100 µM (inactive)	> 100 µM (inactive)	> 100 µM (inactive)	> 100 µM (inactive)	> 100 µM (inactive)	> 100 µM (inactive)	> 100 µM (inactive)	> 100 µM (inactive)	
CC(=O)c1c(O)c(C)c(O)c(Cc2c(O)c3c(c(C(=O)/C=C/c4ccccc4)c2O)OC(C)(C)C=C3)c1O [ROTTLERIN]	2.91 µM (inactive)	1.68 µM (inactive)	3.49 µM (inactive)		1.62 µM (inactive)	3.24 µM (inactive)	3.65 µM (inactive)	3.1 µM (inactive)	2.81 µM (inactive)	2.86 µM (inactive)	3.23 µM (inactive)	2.08 µM (inactive)	2.74 µM (inactive)	1.95 µM (inactive)	2.53 µM (inactive)	2.85 µM (inactive)	1.34 µM (inactive)	1.27 µM (inactive)	1.85 µM (inactive)	2.23 µM (inactive)
